Source: patent US20240199647A1, “ANTI-VIRAL COMPOUNDS” (Aligos Therapeutics, Inc., priority 2022, published 2024)
Where two headings read alike, the source gives them in different places.

Key:
SARS-Cov-2 3CLpro = SARS-Cov-2 3CLpro (Severe acute respiratory syndrome coronavirus 2, UniProt P0DTD1); assay: biochemical; conditions: Table A, read-out: SARS-Cov-2 (IC50)
[1] = tested on: SARS-CoV-2 B.1.1.7 lineage; assay: microbe, parasite or virus in culture; format: cell-based; conditions: Severe acute respiratory syndrome coronavirus 2, Table C, SARS-CoV-2 B.1.1.7 in A549-dual_ACE2_TMPRSS2 cells, read-out: A549-dual_ACE2_TMPRSS2 (EC50)
in vitro = conditions: human

Compound: CN(C(=O)[C@H](CC1CC1)NC(=O)C(F)(F)F)[C@@H](CC1CC1)C(=O)N1C[C@@]2(C[C@@H]1C#N)C(=O)NCc1ccccc12 (single isomer, unassigned) [Compound 123]
- IC50 (SARS-Cov-2 3CLpro; cells given as a bound): > 2000 nM

Compound: CC(C)C[C@@H](C(=O)N1C[C@@]2(CCCNC2=O)C[C@H]1C#N)N(C)C(=O)[C@H](C)NC(=O)C(F)(F)F [Compound 9, (S)—N—((S)-1-((3S,5R)-3-cyano-6-oxo-2,7-diazaspiro[4.5]decan-2-yl)-4-methyl-1-oxopentan-2-yl)-N-methyl-2-(2,2,2-trifluoroacetamido)propanamide]
- IC50 (SARS-Cov-2 3CLpro; class symbols): 20000 to 100000 nM
- EC50 ([1]; class symbols): 1000 to 10000 nM
- CC50 (in vitro): > 1000 nM

Compound: CC(C)C[C@@H](C(=O)N1C[C@]2(C[C@H]1C#N)C(=O)NC(=O)N2C)N(C)C(=O)[C@H](C)NC(=O)C(F)(F)F [Compound 10, (S)—N—((S)-1-((5R,8S)-8-cyano-1-methyl-2,4-dioxo-1,3,7-triazaspiro[4.4]nonan-7-yl)-4-methyl-1-oxopentan-2-yl)-N-methyl-2-(2,2,2-trifluoroacetamido)propanamide]
- IC50 (SARS-Cov-2 3CLpro; class symbols): 200 to 2000 nM
- EC50 ([1]; class symbols): 1000 to 10000 nM
- CC50 (in vitro): > 1000 nM

Compound: CC(C)C[C@@H](C(=O)N1C[C@@]2(C[C@H]1C#N)Oc1ccc(F)cc1NC2=O)N(C)C(=O)[C@H](C)NC(=O)C(F)(F)F [Compound 14a, (S)—N—((S)-1-((2R,5'S)-5′-cyano-6-fluoro-3-oxo-3,4-dihydrospiro[benzo[b][1,4]oxazine-2,3′-pyrrolidin]-1′-yl)-4-methyl-1-oxopentan-2-yl)-N-methyl-2-(2,2,2-trifluoroacetamido)propanamide]
- EC50 ([1]; class symbols): 100 to 1000 nM
- CC50 (in vitro): > 1000 nM

Compound: CC(C)C[C@H](C(=O)N1C[C@@]2(C[C@H]1C#N)Oc1ccc(F)cc1NC2=O)N(C)C(=O)[C@H](C)NC(=O)C(F)(F)F [Compound 14b, (S)—N—((R)-1-((2R,5'S)-5′-cyano-6-fluoro-3-oxo-3,4-dihydrospiro[benzo[b][1,4]oxazine-2,3′-pyrrolidin]-1′-yl)-4-methyl-1-oxopentan-2-yl)-N-methyl-2-(2,2,2-trifluoroacetamido)propanamide]
- EC50 ([1]; cells given as a bound): > 1000 nM
- CC50 (in vitro): > 1000 nM

Compound: C[C@H](NC(=O)C(F)(F)F)C(=O)N[C@@H](CC(C)(C)C)C(=O)N1C[C@@]2(C[C@H]1C#N)Oc1cc(F)cc(F)c1NC2=O [Compound 68]
- IC50 (SARS-Cov-2 3CLpro; class symbols): 20 to 200 nM
- EC50 ([1]; cells given as a bound): > 1000 nM
- CC50 (in vitro): > 1000 nM

Compound: [2H]C([2H])([2H])N(C(=O)[C@H](C)NC(=O)C(F)(F)F)[C@@H](CC(C)C)C(=O)N1C[C@@]2(C[C@H]1C#N)Oc1cc(F)cc(F)c1NC2=O [Compound 109]
- IC50 (SARS-Cov-2 3CLpro; class symbols): < 20 nM
- EC50 ([1]; class symbols): 100 to 1000 nM
- CC50 (in vitro): > 1000 nM

Compound: CN(C(=O)[C@@H](CC1CCCCC1)NC(=O)C(F)(F)F)[C@@H](CC1CC1)C(=O)N1C[C@@]2(C[C@H]1C#N)Oc1cccnc1NC2=O [Compound 145]
- IC50 (SARS-Cov-2 3CLpro; class symbols): < 20 nM
- EC50 ([1]; class symbols): < 100 nM
- CC50 (in vitro): > 1000 nM

Compound: CN(C(=O)[C@@H](Cc1ccncc1)NC(=O)C(F)(F)F)[C@@H](CC1CC1)C(=O)N1C[C@@]2(C[C@H]1C#N)Oc1cccnc1NC2=O [Compound 148]
- IC50 (SARS-Cov-2 3CLpro; class symbols): < 20 nM
- EC50 ([1]; cells given as a bound): > 1000 nM
- CC50 (in vitro): > 1000 nM

Compound: CN(C(=O)[C@@H](Cc1cccnc1)NC(=O)C(F)(F)F)[C@@H](CC1CC1)C(=O)N1C[C@@]2(C[C@H]1C#N)Oc1cccnc1NC2=O [Compound 151]
- IC50 (SARS-Cov-2 3CLpro; class symbols): < 20 nM
- EC50 ([1]; class symbols): 100 to 1000 nM
- CC50 (in vitro): > 1000 nM

Compound: COc1cccc(C[C@@H](NC(=O)C(F)(F)F)C(=O)N(C)[C@@H](CC2CC2)C(=O)N2C[C@@]3(C[C@H]2C#N)Oc2cccnc2NC3=O)c1 [Compound 152]
- IC50 (SARS-Cov-2 3CLpro; class symbols): < 20 nM
- EC50 ([1]; class symbols): < 100 nM
- CC50 (in vitro): > 1000 nM

Compound: CN(C(=O)[C@@H]1CC[C@@H](c2ccccc2)N1C)[C@@H](CC1CC1)C(=O)N1C[C@@]2(C[C@H]1C#N)Oc1cc(F)cc(F)c1NC2=O [Compound 153]
- IC50 (SARS-Cov-2 3CLpro; class symbols): 20 to 200 nM
- EC50 ([1]; class symbols): 100 to 1000 nM
- CC50 (in vitro): > 1000 nM

Compound: CN(C(=O)[C@H](CC1CC1)NC(=O)c1ccc(F)cc1)[C@@H](CC1CC1)C(=O)N1C[C@@]2(C[C@H]1C#N)Oc1ccccc1CNC2=O [Compound 161]
- IC50 (SARS-Cov-2 3CLpro; class symbols): < 20 nM
- EC50 ([1]; class symbols): < 100 nM
- CC50 (in vitro): > 1000 nM

Compound: CN(C(=O)[C@H](CC1CC1)NC(=O)C(F)(F)C(F)(F)F)[C@@H](CC1CC1)C(=O)N1C[C@@]2(C[C@H]1C#N)Oc1ccccc1CNC2=O [Compound 162]
- IC50 (SARS-Cov-2 3CLpro; class symbols): < 20 nM
- EC50 ([1]; class symbols): < 100 nM
- CC50 (in vitro): > 1000 nM

Compound: C[C@H](NC(=O)C(F)(F)F)C(=O)N[C@@H](CC1CC1)C(=O)N1C[C@@]2(C[C@H]1C#N)Oc1cccnc1NC2=O [Compound 180]
- IC50 (SARS-Cov-2 3CLpro; class symbols): 200 to 2000 nM
- EC50 ([1]; cells given as a bound): > 1000 nM
- CC50 (in vitro): > 1000 nM

Compound: CN(C(=O)c1nnc(-c2ccccc2)[nH]1)[C@@H](CC1CC1)C(=O)N1C[C@@]2(C[C@H]1C#N)Oc1cccnc1NC2=O [Compound 210]
- IC50 (SARS-Cov-2 3CLpro; class symbols): 200 to 2000 nM
- EC50 ([1]; cells given as a bound): > 1000 nM
- CC50 (in vitro): > 1000 nM

Compound: CN(C(=O)c1cnc(-c2ccccc2)[nH]1)[C@@H](CC1CC1)C(=O)N1C[C@@]2(C[C@H]1C#N)Oc1cccnc1NC2=O [Compound 211]
- IC50 (SARS-Cov-2 3CLpro; class symbols): 20 to 200 nM
- EC50 ([1]; class symbols): 100 to 1000 nM
- CC50 (in vitro): > 1000 nM

Compound: C[C@H](NC(=O)C1(C)CCC1)C(=O)N(C)[C@@H](CC1CC1)C(=O)N1C[C@@]2(C[C@H]1C#N)Oc1cccnc1NC2=O [Compound 212]
- IC50 (SARS-Cov-2 3CLpro; class symbols): < 20 nM
- EC50 ([1]; class symbols): 100 to 1000 nM
- CC50 (in vitro): > 1000 nM

Compound: C[C@H](NC(=O)C12CC(C1)C2)C(=O)N(C)[C@@H](CC1CC1)C(=O)N1C[C@@]2(C[C@H]1C#N)Oc1cccnc1NC2=O [Compound 216]
- IC50 (SARS-Cov-2 3CLpro; class symbols): < 20 nM
- EC50 ([1]; class symbols): 100 to 1000 nM
- CC50 (in vitro): > 1000 nM

Compound: CN(C(=O)[C@@H](NC(=O)C(F)(F)F)C12CC(C1)C2)[C@@H](CC1CC1)C(=O)N1C[C@@]2(C[C@H]1C#N)Oc1cccnc1NC2=O [Compound 217]
- IC50 (SARS-Cov-2 3CLpro; class symbols): < 20 nM
- EC50 ([1]; class symbols): 100 to 1000 nM
- CC50 (in vitro): > 1000 nM

Compound: CN(C(=O)[C@@H](NC(=O)C(F)(F)F)C1CCCC1)[C@@H](CC1CC1)C(=O)N1C[C@@]2(C[C@H]1C#N)Oc1cccnc1NC2=O [Compound 218]
- IC50 (SARS-Cov-2 3CLpro; class symbols): < 20 nM
- EC50 ([1]; class symbols): < 100 nM
- CC50 (in vitro): > 1000 nM

Compound: CC([C@H](NC(=O)C(F)(F)F)C(=O)N(C)[C@@H](CC1CC1)C(=O)N1C[C@@]2(C[C@H]1C#N)Oc1cccnc1NC2=O)C(C)(C)C (stereo partly drawn) [Compound 234]
- IC50 (SARS-Cov-2 3CLpro; class symbols): < 20 nM

Compound: C[C@H](NC(=O)C(F)(F)F)C(=O)N(C)[C@@H](CC1CC1)C(=O)N1C[C@@]2(C[C@H]1C#N)Oc1c(cccc1OC(F)(F)F)NC2=O [Compound 235]
- IC50 (SARS-Cov-2 3CLpro; class symbols): < 20 nM

Compound: CN(C(=O)[C@H](CCCN)NC(=O)C(F)(F)F)[C@@H](CC1CC1)C(=O)N1C[C@@]2(C[C@H]1C#N)Oc1cccnc1NC2=O [Compound 236]
- IC50 (SARS-Cov-2 3CLpro; class symbols): < 20 nM

Compound: CN(C(=O)c1cc2ccccc2c(=O)[nH]1)[C@@H](CC1CC1)C(=O)N1C[C@@]2(C[C@H]1C#N)Oc1cccnc1NC2=O [Compound 237]
- IC50 (SARS-Cov-2 3CLpro; class symbols): 200 to 2000 nM

Compound: CN(C(=O)[C@H](CC1CC1)NC(=O)C(F)(F)Cl)[C@@H](CC1CC1)C(=O)N1C[C@@]2(C[C@H]1C#N)Oc1ncccc1NC2=O [Compound 238]
- IC50 (SARS-Cov-2 3CLpro; class symbols): < 20 nM

Compound: CO[C@H](C)[C@H](NC(=O)C(F)(F)F)C(=O)N(C)[C@@H](CC1CC1)C(=O)N1C[C@@]2(C[C@H]1C#N)Oc1cccnc1NC2=O [Compound 239]
- IC50 (SARS-Cov-2 3CLpro; class symbols): < 20 nM

Compound: CO[C@H](C)[C@H](NC(=O)C(F)(F)F)C(=O)N(C)[C@@H](CC1CC1)C(=O)N1C[C@@]2(C[C@H]1C#N)Oc1ncccc1NC2=O [Compound 240]
- IC50 (SARS-Cov-2 3CLpro; class symbols): < 20 nM

Compound: CC(C)C[C@@H](C(=O)N1CC2(C[C@H]1C#N)C(=O)Nc1ccnn12)N(C)C(=O)[C@H](C)NC(=O)C(F)(F)F (stereo partly drawn) [Example 7, (2S)—N-[(2S)-1-[(5'S)-5′-cyano-2-oxo-1H-spiro[pyrazolo[1,5-a]imidazole-3,3′-pyrrolidin]-1′-yl]-4-methyl-1-oxopentan-2-yl]-N-methyl-2-(2,2,2-trifluoroacetamido)propanamide]
- IC50 (SARS-Cov-2 3CLpro; class symbols): 20 to 200 nM
- EC50 ([1]; class symbols): 1000 to 10000 nM
- CC50 (in vitro): > 1000 nM

Compound: CC(C)C[C@@H](C(=O)N1C[C@]2(CC(C(C)C)NC2=O)C[C@H]1C#N)N(C)C(=O)[C@H](C)NC(=O)C(F)(F)F (stereo partly drawn) [Example 38]
- IC50 (SARS-Cov-2 3CLpro; class symbols): < 20 nM
- EC50 ([1]; class symbols): 100 to 1000 nM
- CC50 (in vitro): > 1000 nM

Compound: CN(C(=O)[C@H](CC1CC1)NC(=O)C(F)(F)F)[C@@H](CC1CC1)C(=O)N1C[C@@]2(C[C@H]1C#N)Sc1ccccc1NC2=O [Example 39, (S)—N—((S)-1-((2R,5'S)-5′-cyano-3-oxo-3,4-dihydrospiro[benzo[b][1,4]thiazine-2,3′-pyrrolidin]-1′-yl)-3-cyclopropyl-1-oxopropan-2-yl)-3-cyclopropyl-N-methyl-2-(2,2,2-trifluoroacetamido)propanamide]
- IC50 (SARS-Cov-2 3CLpro; class symbols): < 20 nM
- EC50 ([1]; class symbols): < 100 nM
- CC50 (in vitro): > 1000 nM

Compound: CC(C)C[C@@H](C(=O)N1CC2(C[C@H]1C#N)Cn1nccc1NC2=O)N(C)C(=O)[C@H](C)NC(=O)C(F)(F)F (stereo partly drawn) [Example 40, (2S)—N-((2S)-1-((5'S)-5′-cyano-5-oxo-4,5-dihydro-7H-spiro[pyrazolo[1,5-a]pyrimidine-6,3′-pyrrolidin]-1′-yl)-4-methyl-1-oxopentan-2-yl)-N-methyl-2-(2,2,2-trifluoroacetamido)propanamide]
- IC50 (SARS-Cov-2 3CLpro; class symbols): 200 to 2000 nM
- EC50 ([1]; cells given as a bound): > 1000 nM
- CC50 (in vitro): > 1000 nM

Compound: CC(C)C[C@@H](C(=O)N1CC2(C[C@H]1C#N)Cn1nc(Br)cc1NC2=O)N(C)C(=O)[C@H](C)NC(=O)C(F)(F)F (stereo partly drawn) [Example 41, (2S)—N-((2S)-1-((5'S)-2-bromo-5′-cyano-5-oxo-4,5-dihydro-7H-spiro[pyrazolo[1,5-a]pyrimidine-6,3′-pyrrolidin]-1′-yl)-4-methyl-1-oxopentan-2-yl)-N-methyl-2-(2,2,2-trifluoroacetamido)propanamide]
- IC50 (SARS-Cov-2 3CLpro; class symbols): 200 to 2000 nM
- EC50 ([1]; cells given as a bound): > 1000 nM
- CC50 (in vitro): > 1000 nM
